Experimental data taken from EP1164141A2, “Opioid peptides and their use for treatment of pain” (AstraZeneca AB, priority 1994, dated 2001).
Square brackets hold non-standard residues; d marks the D form. Peptide text beside a SMILES is read from it. dNva = CCC[C@@H](N)C(=O)O

Columns and labels:
mice [1] = assay: PBQ (phenylquinone) induced writhing assay; format: in vivo; parameters: ED50 value: unit not given beside the values; details: for ED50 value: as shown in Table 1, PBQ writhing, unit not given; for peripheral analgesia: statement in words, writhing compared with hot plate
Source text: (§1) The term "ED50" as shown in table 1 for the PBQ writhing assays is defined as the dose of drug which induces a 50% reduction in the number of writhes observed compared to the control. The term "ED50" used in the hot-plate assays is defined as the dose of drug required to increase the latency of response 2-fold compared to controls and was determind by parallel-line probit analysis.
(§2) PBQ (phenyl-ρ-benzoquinone) induced writhing in mice is an assessment of both central and peripheral analgesia. For experimental protocol see Sigmund et al., Proc. Soc. Exp. Biol. Med., 95, p. 729 (1957) which is incorporated herein by reference. Central analgesia was determined by the inhibition of a hot plate response in mice. For experimental protocol see G. Woolfe and A. Macdonald, J. Pharmacol. Exp. Ther., 80, p.300 (1944) which is incorporated herein by reference. Assays measuring opioid receptor binding affinities for µ and δ receptors as well as GPI and MVD assays were determined through experimental protocol set out in Schiller et al., Biophys. Res. Commun., 85, p.1322 (1975) incorporated herein by reference.
The test was performed on CD #1 male mice weighing between 18 and 22g. The mice were weighed and marked. They were injected, by intra-peritoneal route, with 0.3ml/20g by weight with a solution of phenylquinone at 0.02%. The contortions which appeared during a 15 minute time period following the injection were counted. The phenylquinone was injected at time intervals of 5, 20 or 60 minutes after administration of the compound (or medium, or standard) by subcutaneous route. It was injected at time intervals of 60 minutes after the administration of the compound (or medium, or standard) by oral route;
The 0.02% phenylquinone^3 solution was prepared in the following fashion. 20mg of phenylquinone was dissolved in 5ml ethanol 90% (sigma, reagent, alcohol). The dissolved phenylquinone was slowly added to 95 ml of distilled water continuously shaken and preheated (not boiled). The phenylquinone solution was, at all times protected from light and a new solution was prepared every day for the test. It is recommended to wait 2 hours before using the phenylquinone solution. ** 2-phenyl-1,4-benzoquinone (Sigma)
The test may be carried out on 5 mice at the same time. Each group usually contained 10 mice. If an antagonist, such as naloxone, was used, it was administered 20 minutes before the compound (or the medium, or the standard) by intra-peritoneal route.

mice [2] = assay: lethality / safety after i.v. or s.c. administration; format: in vivo
Protocol: Therefore, the desired route of administration for these compounds is subcutaneous. Thus, the structural paradigm exemplified by BCH1774 can be modified while maintaining exclusion from the central nervous system even at doses as high as 100 mg kg^-1 s.c. and the deleterious i.v. toxicity can be minimized. Thus BCH2463 is not lethal to mice at doses at least as high as 20 mg kg^-1 (i.v.).

mice [3] = assay: hot plate test (central analgesia); format: in vivo; details: for central analgesic effect: mouse hot plate test, even at doses of 100 mg/kg
Source text: as §1, §2
For this test, CD #1 male mice weighing between 20 and 25g were used. The mice were weighed, marked, and divided into groups of 10.
The mice were usually treated by subcutaneous injection of the compound (or the standard or the medium) in an injection volume equivalent to 0.1 ml/10g p.c. (10ml/kg). If an antagonist such as Nalaxone or N-methyl-Levallorphan was used, it was administered intra-peritoneally 20 minutes before the compound (or the standard, or the medium) was administered. The injection volume was also 0.1 ml/10g p.c. The dose of the antagonist was 10 mg/kg.
The mice were individually evaluated for reaction time on the hot plate. The temperature of the hot plate (Sorel, model DS37) was set at 55°C. […] The mice may be observed at different time intervals after administration of the compound (or medium, or standard). The time intervals may be 30, 60 or 120 minutes (or other).
For each time reading, the average reaction time of the control group was multiplied by 1.5. The reaction time of each treated mouse was compared to the "control average X 1.5.". […] The number of analgesic mice in a group determined the analgesic percentage of the compound for this reading.

[4] = degradation on exposure to brush border kidney membranes; format: in vitro ADME; details: exposed to brushborder kidney membranes
Source text: Many of the compounds listed in Table 1 show good µ-receptor binding but show weak analgesic effect in the mouse writhing assay. This anomaly may be due to rapid proteolysis, rapid clearence, or both. […] These three compounds are H-Tyr-D-Nva-Phe-Phe-NH2 (BCH2462), H-Tyr-D-Ser-Phe-Phe-NH2 (BCH2463), and H-Tyr-D-Arg-Phe-Phe-NH2 (BCH2687).
The effects of inhibition of proteolytic metabolism of BCH2463 by the inhibitor DL-Thiorphan has been studied and also the metabolic breakdown of BCH2463 mediated by brush border kidney membranes. The data obtained indicate that the kidney may be the principal site of clearance and metabolism for the compound BCH2463. From Figure 2, it appears that the endopeptidase enzyme EC24-11, which is inhibited by DL-thiorphan, is the preliminary mediator of BCH2463 proteolysis by brush border kidney extract.

For `NC(=O)[C@H](Cc1ccccc1)NC(=O)[C@H](Cc1ccccc1)NC(=O)[C@@H](CO)NC(=O)[C@@H](N)Cc1ccc(O)cc1` [BCH2463, H-Tyr-D-Ser-Phe-Phe-NH2] (H-Y[dS]FF-NH2), the ED50 value (mice [1]) was 0.5, the ED50 (mice [1]; mouse s.c., at 20 minutes post administration (Figure 2)) was 0.5 mg/kg and the peripheral analgesia (mice [1]) was “exhibit peripheral analgesia”. For the same compound, the “lethal effects upon mice” value (mice [2]; doses up to 20 mg kg^-1 i.v.) was “did not exhibit any lethal effects”, the reaction time (mice [3]; mice treated with 100 mg/kg (Fig 1B), control approximately 7 seconds) was “about 9 seconds” and the central analgesic effect (mice [3]) was “No central analgesic effect was observed”.
In the case of `CCC[C@@H](NC(=O)[C@@H](N)Cc1ccc(O)cc1)C(=O)N[C@@H](Cc1ccccc1)C(=O)N[C@@H](Cc1ccccc1)C(N)=O` [BCH2462, H-Tyr-D-Nva-Phe-Phe-NH2] (H-Y[dNva]FF-NH2), the ED50 value (mice [1]) is reported as 2.7, the peripheral analgesia (mice [1]) is reported as “exhibit peripheral analgesia” and the “lethal effects upon mice” value (mice [2]; 1-5 mg kg^-1 i.v. bolus dose) is reported as “exhibited lethal effects”. The reaction time (mice [3]; Figs. 1C, 1D, dose not given) was “approximately 8 seconds” and the central analgesic effect (mice [3]) was “No central analgesic effect was observed”.
In the case of `N=C(N)NCCC[C@@H](NC(=O)[C@@H](N)Cc1ccc(O)cc1)C(=O)N[C@@H](Cc1ccccc1)C(=O)N[C@@H](Cc1ccccc1)C(N)=O` [BCH2687, H-Tyr-D-Arg-Phe-Phe-NH2] (H-Y[dR]FF-NH2), the ED50 value (mice [1]) is reported as 0.5, the peripheral analgesia (mice [1]) is reported as “exhibit peripheral analgesia” and the reaction time (mice [3]; Figs. 1C, 1D, dose not given) is reported as “approximately 8 seconds”. For the same compound, the central analgesic effect (mice [3]) was “No central analgesic effect was observed”.
With `C[C@@H](NC(=O)[C@@H](N)Cc1ccc(O)cc1)C(=O)N[C@@H](Cc1ccccc1)C(=O)N[C@@H](Cc1ccccc1)C(N)=O` [BCH1774, H-Tyr-D-Ala-Phe-Phe-NH2] (H-Y[dA]FF-NH2) the “duration in vivo of analgesic effects” value (mice [1]; 20 mg/kg s.c. of BCH1774 compared with 30 mg/kg s.c. of BCH2463 (Figure 3)) was “lasted longer than for BCH2463”, the ED50 value (mice [1]) was 1.4 and the “time within which rapidly degraded” value [4] was 15 to 30 min. The “lethal effects upon mice” value (mice [2]; 1-5 mg kg^-1 i.v. bolus dose) was “exhibited lethal effects” and the central analgesic effect (mice [3]) was “lack of analgesic effect”.
